Reference: patent US8334267B2, “Mangiferin calcium salts, the method for its preparation and its use” (Hainan Deze Drug Research Co., Ltd., priority 2007, dated 2012)
Counter-ions that a name gives are not always drawn.

Columns and labels:
[1] = Pharmacokinetics of mangiferin and mangiferin calcium after oral administration; assay type: in vivo, rats; conditions: rat, in vivo, po, 100 mg/kg
Procedure: 1, The Confect of Drug Solution
Mangiferin is suspended in Carboxymethyl cellulose sodium solution which concentration is one percent; the mangiferin concentration is 10 mg/mL, which is sample A.
All rats were fasted for 16 hours, free drinking water. The rats are oral administrated separately sample A and sample B, which dose is 100 mg/kg. The rats were taken whole blood in 5 minutes before oral administrated and 15 min, 30 min, 45 min, 60 min, 90 min, 120 min, 180 min, 240 min, 300 min, 360 min, 480 min after oral administrated. Serum is separated from these blood samples.
Serum Samples are extracted accurately 0.2 ml into centrifuge tubes separately; then 40 μL cold trichloroacetic acid solution which concentration is ten percent is added into centrifuge tubes separately. The samples are whorled 3 minutes; then centrifuged 12000 r/min for 10 minutes, 120 μl the up layer solution are extracted from centrifuge tubes and put into sample bottles separately. All the samples are detected by HPLC.
Apparatus: Angilent 1100 HPLC (American Agilent Co.), include G1312A dual pump G1313A Auto-Sampler.
Chromatographic column: discover ODS column (250 mm×6 mm, 5 μm);
The mobile phase: Acetonitrile—0.1% H3PO4 water (13:87 v/v)
Velocity of flow: 1.0 ml/min
Detection Wavelength: 254 nm.
Column temperature: 30° C.

GK rats = assay: Efficacy in GK model (plasma glucose, insulin, lipids); assay type: in vivo, Goto-Kakizaki rats (GK)
Procedure: Rosiglitazone Hydrochloride tablets were purchased from Zhejiang wanma pharmaceutical Co., Ltd. Mangiferin and mangiferin calcium were suspended with 3% sodium carboxymethyl cellulose before use.
Goto-Kakizaki rats (GK) (16 weeks age, ♀ ♂) were purchased from Shanghai SLAC laboratory animal Co., Ltd. The animals were kept in IVC cages with temperature (22° C.). There are two rats in each cage.
Experimental group: GK rats group (n=10); mangiferin groups (20, 40, 80 mg/kg, each 10 rats); mangiferin calcium groups (10, 20, 40 mg/kg, each 10 rats); Rosiglitazone Hydrochloride group [3 mg/kg, n=10]. Test samples or vehicle control was given orally for 30 days. GK rats group were given vehicle.
The blood specimens were taken by abdominal aorta at the end of the test. Plasma glucose (GLU), insulin (INS), triglycerides (TG), total cholesterol (TC), high density lipoprotein (HDL), low density lipoprotein (LDL) were determined
(§1) GLU, TC, TG, HDL and LDL levels were determined using GF-D800 semi-auto chemist which was purchased from Shandong Gaomi Caihong Analytical Instrument Co., Ltd. Insulin: radioimmunoassay (RIA), γ counter counts. insulin RIA Kit was purchased from Shandong Weifang City three-dimensional (3V) Biological company.
Statistics: The results have been calculated as mean±SD ( x±SD) and comparisons of the data have been done by t-test.

STZ rats = assay: Efficacy in STZ model (plasma glucose, insulin, lipids, glucose clamp); assay type: in vivo, wistar rats; conditions: for Glucose infusion rate: glucose clamp; for FFA / GLU / INS / TG: high fat chow
Procedure: Rosiglitazone Hydrochloride tablets were purchased from Zhejiang wanma pharmaceutical Co., Ltd. Mangiferin and mangiferin calcium salts were suspended with 3% sodium carboxymethyl cellulose.
Normal female wistar rats (SPF, 3 months age, 180-200 g) were purchased from Hainan provincial peoples hospital experimental Animal Center. The animals were kept in a room temperature (25˜28° C.) with free access of food and water. A light-dark cycle (6 a.m and 6 p.m) was strictly enforced. High fat chow is composed of 55% basic chow, 2% protein, 16% fat, 27% white sugar.
Model: After the rats were fasted for 12 hours, the rats are injected 30-35 mg/kg streptozotocin (STZ) solution once by tail vein. STZ solution is prepared to 2% concentration with […], pH 4.4 citrate-sodium citrate buffer before use. The model rats were weighed, taked out tail vein blood, tested blood glucose when the Model is done after 14 days after fasting for 12 hours, then injected 20% glucose solution ([…]) by intraperitoneal, determined blood glucose in 0.5 h, 1 h, 2 h. The rats whose glucose tolerance is abnormal were brought into experiments. Normal wistar rats were fed normal chow, model rats were fed high fat chow.
Experimental group:normal wistar rats group (n=10); after Diabetes model is succeed, the rats were randomly divided into 7 groups: Diabetes model group (n=10); mangiferin groups (20, 40, 80 mg/kg, each 10 rats); mangiferin calcium groups (10, 20, 40 mg/kg, each 10 rats); Rosiglitazone Hydrochloride group [3 mg/kg, n=10]. Test samples or vehicle control was given orally for 8 weeks. Diabetes model group and normal group were given vehicle.
Determination of insulin sensitivity (Glucose infusion rate): Using glucose clamp technique, in accordance with Konglingdong'method ? KONG Ling-dong, ZHU Liang-zheng, SONG Ju-min, etc al. Intervention Effects of Tiaozhi Jiangtang Tablet on Insulin Resistance in Rats with Diabetes Mellitus Type 2.
Determination of plasma glucose and lipid: Rats were taken whole blood after killed, then serum was separated, determined plasma glucose (GLU), insulin (INS), triglycerides (TG) and free fatty acids (FFA).
as §1, with “GLU” for “GLU, TC, TG, HDL”, “TG” for “LDL”, “Ltd. Free fatty acids were determined using copper colorimetric determination. The kits for Determination of free fatty acids were purchased from Nanjing Jiancheng Bioengineering Institute.” for “Ltd.”
Statistics: The results have been calculated as mean±SD ( x±SD) and compareisons of the data have been done by t-test.

[2] = Water solubility test in distilled water
Procedure: 5 mg mangiferin powder which is weighed up accurately is put into 50 ml distilled water, the solution is shaked acutely 30 second every 5 minutes.
100 mg mangiferin calcium powder which is obtained by the method for preparation of example 8 and weighed up accurately is put into 50 ml distilled water, the solution is shaked acutely 30 second every 5 minutes.

Structure (SMILES): O=c1c2cc(O)c(O)cc2oc2cc(O)c(C3OC(CO)C(O)C(O)C3O)c(O)c12 (stereo not shown) [Mangiferin]
- AUC(0-inf) [1]: 31100 ng·h/mL
- Cmax [1]: 14800 ± 500 ng/mL
- T1/2β [1]: 45.7 ± 8.3 min
- GLU (GK rats; 20 mg/kg orally for 30 days): 19.65 ± 5.07 mmol/L
- HDL (GK rats; 20 mg/kg orally for 30 days): 0.68 ± 0.12 mmol/L
- INS (GK rats; 20 mg/kg orally for 30 days): 26.94 ± 4.89 μ IU/ml
- LDL (GK rats; 20 mg/kg orally for 30 days): 1.56 ± 0.26 mmol/L
- TC (GK rats; 20 mg/kg orally for 30 days): 2.54 ± 0.28 mmol/L
- TG (GK rats; 20 mg/kg orally for 30 days): 1.69 ± 0.31 mmol/L
- improvement of GLU, TC, TG, HDL and LDL and INS in diabetic GK rats (GK rats; 20 mg/kg orally for 30 days): does not significantly improve
- GLU (GK rats; 40 mg/kg orally for 30 days): 20.33 ± 4.09 mmol/L
- HDL (GK rats; 40 mg/kg orally for 30 days): 0.75 ± 0.13 mmol/L
- INS (GK rats; 40 mg/kg orally for 30 days): 24.44 ± 1.91 μ IU/ml
- LDL (GK rats; 40 mg/kg orally for 30 days): 1.33 ± 0.41 mmol/L
- TC (GK rats; 40 mg/kg orally for 30 days): 2.50 ± 0.45 mmol/L
- TG (GK rats; 40 mg/kg orally for 30 days): 1.61 ± 0.22 mmol/L
- improvement of TG, HDL and LDL in diabetic GK rats (GK rats; 40 mg/kg orally for 30 days): improves
- GLU (GK rats; 80 mg/kg orally for 30 days): 20.57 ± 4.13 mmol/L
- HDL (GK rats; 80 mg/kg orally for 30 days): 0.78 ± 0.11 mmol/L
- INS (GK rats; 80 mg/kg orally for 30 days): 16.68 ± 1.76 μ IU/ml
- LDL (GK rats; 80 mg/kg orally for 30 days): 1.30 ± 0.38 mmol/L
- TC (GK rats; 80 mg/kg orally for 30 days): 2.45 ± 0.31 mmol/L
- TG (GK rats; 80 mg/kg orally for 30 days): 1.59 ± 0.16 mmol/L
- improvement of GLU, TG, FFA, INS, Glucose infusion rate in diabetic rats (STZ rats; 20 mg/kg orally for 8 weeks): does not significantly improve
- Glucose infusion rate (STZ rats; 20 mg/kg orally for 8 weeks): 15.75 ± 3.69 mg/kg · min
- Glucose infusion rate (STZ rats; 40 mg/kg orally for 8 weeks): 18.32 ± 3.89 mg/kg · min
- Glucose infusion rate (STZ rats; 80 mg/kg orally for 8 weeks): 23.65 ± 3.67 mg/kg · min
- FFA (STZ rats; 20 mg/kg orally for 8 weeks): 1.79 ± 0.24 µmol/L
- GLU (STZ rats; 20 mg/kg orally for 8 weeks): 10.56 ± 0.38 mmol/L
- INS (STZ rats; 20 mg/kg orally for 8 weeks): 33.42 ± 3.79 μ IU/ml
- TG (STZ rats; 20 mg/kg orally for 8 weeks): 3.42 ± 0.41 mmol/L
- FFA (STZ rats; 40 mg/kg orally for 8 weeks): 1.56 ± 0.19 µmol/L
- GLU (STZ rats; 40 mg/kg orally for 8 weeks): 8.45 ± 0.23 mmol/L
- INS (STZ rats; 40 mg/kg orally for 8 weeks): 28.13 ± 3.74 μ IU/ml
- TG (STZ rats; 40 mg/kg orally for 8 weeks): 2.82 ± 0.22 mmol/L
- FFA (STZ rats; 80 mg/kg orally for 8 weeks): 1.29 ± 0.34 µmol/L
- GLU (STZ rats; 80 mg/kg orally for 8 weeks): 7.05 ± 0.44 mmol/L
- INS (STZ rats; 80 mg/kg orally for 8 weeks): 24.35 ± 3.46 μ IU/ml
- TG (STZ rats; 80 mg/kg orally for 8 weeks): 1.82 ± 0.32 mmol/L
- dissolves in 30 minutes ([2]; 5 mg powder in 50 ml distilled water): can't be dissolved
- solubility at 30 min ([2]; water, thermodynamic from solid): < 100 µg/mL

Structure (SMILES): CN(CCOc1ccc(CC2SC(=O)NC2=O)cc1)c1ccccn1 (stereo not shown) [Rosiglitazone, Rosiglitazone Hydrochloride]
- GLU (GK rats; 3 mg/kg orally for 30 days): 24.38 ± 2.26 mmol/L
- HDL (GK rats; 3 mg/kg orally for 30 days): 0.78 ± 0.07 mmol/L
- INS (GK rats; 3 mg/kg orally for 30 days): 17.58 ± 9.80 μ IU/ml
- LDL (GK rats; 3 mg/kg orally for 30 days): 1.37 ± 0.19 mmol/L
- TC (GK rats; 3 mg/kg orally for 30 days): 2.40 ± 0.17 mmol/L
- TG (GK rats; 3 mg/kg orally for 30 days): 1.48 ± 0.12 mmol/L
- Glucose infusion rate (STZ rats; 3 mg/kg orally for 8 weeks): 24.75 ± 3.69 mg/kg · min
- FFA (STZ rats; 3 mg/kg orally for 8 weeks): 1.25 ± 0.13 µmol/L
- GLU (STZ rats; 3 mg/kg orally for 8 weeks): 7.49 ± 2.18 mmol/L
- INS (STZ rats; 3 mg/kg orally for 8 weeks): 19.87 ± 4.21 μ IU/ml
- TG (STZ rats; 3 mg/kg orally for 8 weeks): 1.44 ± 0.16 mmol/L
